Experimental data published in US20200246317A1, “METHODS OF TREATING DIABETIC NEUROPATHY WITH A THIAZOLINE ANTI-HYPERALGESIC AGENT” (CERSCI THERAPEUTICS, INC., priority 2019, published 2020).
Counter-ions that a name gives are not always drawn.

What was measured:
[1] = Rat brain distribution and pharmacokinetic study; type: in vivo
Description: A rat brain distribution study performed in order to determine standard pharmacokinetic parameters and to assess the brain penetration properties of Compound 1 administered orally and intravenously.

Excretion in rats = type: in vivo, rat
[2] = In vivo epimerization by chiral methods
OATP1B3 = biological target: T1, OATP1B3 (Homo sapiens, UniProt Q9NPD5); test: Inhibition of transporters, OATP1B3 (HEK293 cells); type: in vitro ADME
T1 construct: expressed in transfected cells; host or cells: HEK293 cells
T1 sequence (Q9NPD5 1-702): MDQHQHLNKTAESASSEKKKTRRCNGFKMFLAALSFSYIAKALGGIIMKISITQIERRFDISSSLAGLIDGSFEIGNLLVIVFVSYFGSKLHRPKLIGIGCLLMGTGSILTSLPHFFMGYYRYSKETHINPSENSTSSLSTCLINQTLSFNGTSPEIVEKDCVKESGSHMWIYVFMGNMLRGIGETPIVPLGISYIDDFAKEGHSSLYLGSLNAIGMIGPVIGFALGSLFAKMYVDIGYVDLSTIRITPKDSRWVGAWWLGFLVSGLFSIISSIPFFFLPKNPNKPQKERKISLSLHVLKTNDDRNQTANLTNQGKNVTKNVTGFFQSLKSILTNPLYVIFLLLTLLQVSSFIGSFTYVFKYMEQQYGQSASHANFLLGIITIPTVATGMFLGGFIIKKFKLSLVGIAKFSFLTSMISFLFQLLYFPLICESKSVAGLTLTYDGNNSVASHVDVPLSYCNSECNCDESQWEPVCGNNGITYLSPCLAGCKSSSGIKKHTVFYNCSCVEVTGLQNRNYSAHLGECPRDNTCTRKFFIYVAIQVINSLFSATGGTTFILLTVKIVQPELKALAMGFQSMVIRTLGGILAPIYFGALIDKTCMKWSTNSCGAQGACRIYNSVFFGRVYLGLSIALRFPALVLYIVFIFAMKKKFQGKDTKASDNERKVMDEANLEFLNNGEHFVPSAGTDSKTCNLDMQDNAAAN

[3] = tested on: hypersensitivity caused by an injury/insult such as an incision or irritant; test: Hypersensitivity caused by an injury/insult (incision or irritant); conditions: in vivo
OAT1 = biological target: T2, OAT1 (Homo sapiens, UniProt Q4U2R8); test: Inhibition of transporters, OAT1 (HEK293 cells); type: in vitro ADME
T2 construct: expressed in transfected cells; host or cells: HEK293 cells
T2 sequence (Q4U2R8 1-563): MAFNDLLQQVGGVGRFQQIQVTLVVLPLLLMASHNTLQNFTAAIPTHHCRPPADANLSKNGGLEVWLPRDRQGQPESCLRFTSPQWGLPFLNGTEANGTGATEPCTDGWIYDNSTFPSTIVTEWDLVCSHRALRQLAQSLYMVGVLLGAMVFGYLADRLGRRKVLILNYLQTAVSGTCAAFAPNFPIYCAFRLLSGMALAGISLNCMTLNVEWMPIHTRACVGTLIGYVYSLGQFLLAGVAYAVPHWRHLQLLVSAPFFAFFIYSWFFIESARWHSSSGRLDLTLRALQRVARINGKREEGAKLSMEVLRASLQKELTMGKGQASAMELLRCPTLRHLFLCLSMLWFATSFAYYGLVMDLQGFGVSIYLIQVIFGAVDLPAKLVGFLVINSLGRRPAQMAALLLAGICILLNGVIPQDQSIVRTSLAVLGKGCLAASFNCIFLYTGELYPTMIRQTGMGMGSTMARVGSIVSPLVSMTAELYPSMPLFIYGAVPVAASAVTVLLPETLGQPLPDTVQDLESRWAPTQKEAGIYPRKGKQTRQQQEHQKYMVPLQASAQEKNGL

uninjured animals = test: Normal sensation in uninjured animals; type: in vivo; conditions: given to uninjured animals
[4] = tested on: streptozotocin (STZ)-induced diabetic rats; test: Mechanical thresholds in streptozotocin (STZ)-induced diabetic rats; type: in vivo, rat
Experimental: Experiments were conducted to determine the effect of Compound 1 in streptozotocin (STZ)-induced diabetic rats. In the first experiment, after obtaining mechanical threshold baselines, STZ (50 mg/kg IV) was administered (Day −7). Two days later, blood glucose levels were measured and animals that were hyperglycemic (>250 mg/dL) continued in the study. On Day 0 the baseline for mechanical thresholds prior to dosing with test articles was established for the rats. Compound 1 (10, 30, and 100 mg/kg PO), gabapentin (100 mg/kg PO) or vehicle was then administered daily for 5 days. On Day 0 mechanical thresholds were obtained at 1, 3, and 6 h post-dose. On Day 1 mechanical thresholds were measured immediately prior to dosing and then 3 h post-dose. The same regimen was followed on Day 3.
In a subsequent study, the same STZ paradigm was followed. However, in addition to the 100 mg/kg Compound 1 group, two additional cohorts received the Compound 1 100 mg/kg dose split into two or three doses per day with 50 mg/kg BID and 33 mg/kg TID. In addition to the gabapentin (100 mg/kg PO) group, a separate cohort received duloxetine (30 mg/kg PO). Additionally, in this study mechanical threshold testing was implemented every day immediately prior to dosing and 2 h post-dose for 7 days.

[5] = tested on: methylglyoxal-induced diabetic neuropathy; test: Rat model of diabetic neuropathy, methylglyoxal-induced; type: in vivo; conditions: methylglyoxal-induced (overview)

With `CC1(C)SC(Nc2ccccc2O)=N[C@@H]1C(=O)O` [Compound 1, (R)-2-(2-hydroxyphenylamino)-5,5-dimethyl-4,5-dihydrothiazole-4-carboxylic acid mono-hydrochloride] the “distribution to tissues and brain” value ([1]; overview) was “distributes to tissues but not to brain to an appreciable extent”, the “bioavailability after oral administration” value ([1]; rat) was “bioavailable” and the “elimination from the systemic circulation” value ([1]; rats) was “moderate rate”. For the same compound, the Oral bioavailability ([1]; rats, 30 mg/kg oral dose) was 111%, the oral absorption ([1]; rats, 30 mg/kg oral dose) was “rapidly and completely absorbed” and the peak plasma concentration ([1]; rats, 30 mg/kg oral dose) was 9 µg/mL. For the same compound, the terminal half-life ([1]; rats, 30 mg/kg oral dose) was 1.6 h, the “time to peak plasma concentration” value ([1]; rats, 30 mg/kg oral dose) was no more than 1 h and the “form excreted into urine and feces” value (Excretion in rats) was “primarily as a sulfate conjugate”. For the same compound, the epimerization in vivo [2] was “no epimerization”, the “inhibition of OATP1B3 (in words)” value (OATP1B3) was “does not inhibit” and the reversal of hypersensitivity [3] was “complete reversal of hypersensitivity”. For the same compound, the “inhibition of OAT1 (in words)” value (OAT1) was “does not inhibit”, the “effect on normal sensation” value (uninjured animals) was “does not alter normal sensation” and the “reversal of allodynia (mechanical threshold relative to vehicle)” value ([4]; first experiment, 10, 30, 100 mg/kg PO daily, subsequent days) was “statistically-significant”. For the same compound, the “reversal of allodynia (mechanical threshold)” value ([4]; first experiment, Compound 1 10, 30, 100 mg/kg PO, gabapentin 100 mg/kg PO daily, Day 0 (gabapentin: 1 h post-dose on Day 0 and all time points thereafter)) was “non-significant reversal of allodynia”, the “effect on mechanical threshold compared with gabapentin” value ([4]; first experiment, subsequent days, gabapentin 100 mg/kg PO) was “comparable to gabapentin” and the effect on allodynia ([4]; rat model of diabetic neuropathy, streptozotocin-induced (overview)) was “alleviates allodynia”. For the same compound, the “difference between dosing regimens” value ([4]; subsequent study, 100 mg/kg QD vs 50 mg/kg BID vs 33 mg/kg TID) was “no clear difference”, the “reversal of allodynia (mechanical threshold)” value ([4]; subsequent study, 7 days, Compound 1 100 mg/kg QD, 50 mg/kg BID, 33 mg/kg TID, gabapentin 100 mg/kg PO, duloxetine 30 mg/kg PO) was “reversed allodynia upon continued daily dosing reaching statistical significance from Day 1 and beyond” and the effect on allodynia [5] was “alleviates allodynia”.
